Experimental data taken from ChEMBL document CHEMBL1201862, “PubChem BioAssay data set” (2004).
Activity calls are given as the source filed them.

Experiments:
Fatty acid synthase [1] = target: T1, Fatty acid synthase (Homo sapiens, UniProt P49327); experiment: FAS thioesterase domain inhibitors, dose response, biochemical, endpoint fluorescence intensity, uHTS hits (AID 624327); format: functional;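 further: fluorescence from hydrolysis of an O-methyl fluorescein acyl ester substrate by the enzyme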
T1 sequence (P49327 whole entry, the tested form may be a part): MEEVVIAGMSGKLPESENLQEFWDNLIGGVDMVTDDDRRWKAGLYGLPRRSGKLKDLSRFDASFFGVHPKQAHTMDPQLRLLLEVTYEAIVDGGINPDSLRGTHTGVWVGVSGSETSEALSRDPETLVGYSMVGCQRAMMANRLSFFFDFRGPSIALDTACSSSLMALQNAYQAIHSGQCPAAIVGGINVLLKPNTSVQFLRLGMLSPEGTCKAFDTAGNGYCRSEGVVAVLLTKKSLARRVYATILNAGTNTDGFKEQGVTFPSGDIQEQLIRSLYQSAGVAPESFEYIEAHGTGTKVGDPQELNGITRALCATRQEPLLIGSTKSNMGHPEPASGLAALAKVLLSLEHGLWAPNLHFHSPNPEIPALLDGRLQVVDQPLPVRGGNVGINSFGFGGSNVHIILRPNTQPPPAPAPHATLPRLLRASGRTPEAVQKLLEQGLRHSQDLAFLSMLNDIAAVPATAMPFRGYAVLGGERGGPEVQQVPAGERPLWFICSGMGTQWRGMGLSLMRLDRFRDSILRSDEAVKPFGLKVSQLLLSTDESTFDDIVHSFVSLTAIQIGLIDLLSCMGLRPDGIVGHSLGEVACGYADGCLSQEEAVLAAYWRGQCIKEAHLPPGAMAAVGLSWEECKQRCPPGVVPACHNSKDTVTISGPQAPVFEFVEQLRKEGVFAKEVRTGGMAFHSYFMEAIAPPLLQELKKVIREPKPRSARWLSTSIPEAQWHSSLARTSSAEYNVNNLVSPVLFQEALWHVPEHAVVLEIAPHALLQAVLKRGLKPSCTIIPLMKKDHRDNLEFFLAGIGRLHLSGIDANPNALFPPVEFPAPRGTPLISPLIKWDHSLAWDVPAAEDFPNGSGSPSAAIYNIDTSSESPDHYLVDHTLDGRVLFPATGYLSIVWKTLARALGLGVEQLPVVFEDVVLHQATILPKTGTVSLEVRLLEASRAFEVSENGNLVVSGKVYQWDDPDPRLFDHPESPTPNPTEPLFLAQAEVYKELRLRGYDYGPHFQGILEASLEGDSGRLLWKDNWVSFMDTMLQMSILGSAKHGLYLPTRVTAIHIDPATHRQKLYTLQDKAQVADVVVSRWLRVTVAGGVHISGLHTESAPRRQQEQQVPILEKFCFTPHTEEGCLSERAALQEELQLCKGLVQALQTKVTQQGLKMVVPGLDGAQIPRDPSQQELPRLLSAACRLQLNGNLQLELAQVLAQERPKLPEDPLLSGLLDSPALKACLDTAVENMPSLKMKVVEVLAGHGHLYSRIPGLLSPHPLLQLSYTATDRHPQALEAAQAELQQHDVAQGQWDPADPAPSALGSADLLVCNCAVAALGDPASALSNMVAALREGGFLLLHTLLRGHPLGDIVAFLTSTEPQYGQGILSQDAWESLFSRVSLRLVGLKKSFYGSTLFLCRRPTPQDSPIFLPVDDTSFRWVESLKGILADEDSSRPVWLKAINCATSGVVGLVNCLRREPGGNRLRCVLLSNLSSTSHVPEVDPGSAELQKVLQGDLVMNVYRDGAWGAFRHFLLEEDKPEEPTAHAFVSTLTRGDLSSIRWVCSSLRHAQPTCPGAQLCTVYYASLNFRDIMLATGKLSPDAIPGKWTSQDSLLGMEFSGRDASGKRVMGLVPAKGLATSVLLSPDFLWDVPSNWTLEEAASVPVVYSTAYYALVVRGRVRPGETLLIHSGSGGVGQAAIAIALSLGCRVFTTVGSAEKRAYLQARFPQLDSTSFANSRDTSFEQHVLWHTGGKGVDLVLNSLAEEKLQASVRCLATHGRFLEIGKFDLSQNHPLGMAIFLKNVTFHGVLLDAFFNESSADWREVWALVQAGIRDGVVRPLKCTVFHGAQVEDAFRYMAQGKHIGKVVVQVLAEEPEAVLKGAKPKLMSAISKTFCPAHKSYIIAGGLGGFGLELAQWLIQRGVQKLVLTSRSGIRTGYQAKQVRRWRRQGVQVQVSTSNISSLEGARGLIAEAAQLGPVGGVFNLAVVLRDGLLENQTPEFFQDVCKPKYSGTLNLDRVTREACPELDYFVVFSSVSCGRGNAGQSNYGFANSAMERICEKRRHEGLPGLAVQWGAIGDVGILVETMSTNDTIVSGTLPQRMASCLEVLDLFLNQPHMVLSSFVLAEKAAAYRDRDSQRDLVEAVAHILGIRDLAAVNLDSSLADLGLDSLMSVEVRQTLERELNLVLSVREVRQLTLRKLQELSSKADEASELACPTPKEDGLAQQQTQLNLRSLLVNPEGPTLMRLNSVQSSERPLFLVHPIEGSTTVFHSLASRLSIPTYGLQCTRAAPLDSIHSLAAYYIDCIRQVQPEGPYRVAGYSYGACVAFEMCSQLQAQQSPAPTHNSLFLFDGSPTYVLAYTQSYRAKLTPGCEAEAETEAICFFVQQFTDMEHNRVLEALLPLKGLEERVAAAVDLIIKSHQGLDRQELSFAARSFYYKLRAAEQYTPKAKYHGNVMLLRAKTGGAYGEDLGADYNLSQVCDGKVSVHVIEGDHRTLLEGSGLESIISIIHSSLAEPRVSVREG

Fatty acid synthase [2] = target: T1, Fatty acid synthase; experiment: FAS thioesterase domain inhibitors, dose response, biochemical, kinetic fluorescence intensity (AID 624326); format: functional;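 further: rate of fluorescence rise from hydrolysis of a fluorogenic O-methyl fluorescein ester substrate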
BJ [3] = experiment: cytotoxicity toward BJ-TERT fibroblasts, dose response, cell-based, RAS-independent, luminescence (AID 1933); format: functional; settings: Homo sapiens
BJ [4] = experiment: cells; format: functional, cell-based; settings: Homo sapiens
BJ [5] = experiment: cytotoxicity toward BJ-TERT-LT-ST fibroblasts, dose response, cell-based, RAS-independent, luminescence (AID 1935); format: functional; settings: Homo sapiens;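 further: BJ fibroblasts immortalized with TERT plus LT and ST oncogenes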
[6] = cytotoxicity toward DRD oncogenic fibroblasts, dose response, cell-based, non-viral oncogenic, luminescence (AID 1934); format: functional; settings: Homo sapiens
[7] = intracellular Trypanosoma cruzi inhibitors in host cells – cell-based, plate reader, cherry-pick samples, set 3, dose response (AID 651818); format: functional;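 further: compounds incubated with infected cells for about four days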
[8] = P. falciparum Dd2 growth inhibitors, dose response, SYBR Green, cherry-picked samples (AID 1159567); format: functional, cell-based
[9] = test system: Streptococcus sp. 'group A'; experiment: growth inhibition of control SK(-) GAS strain, dose response, counter-screen for streptokinase expression inhibitor project, luminescence, kanamycin, BacTiterGlo, confirmation (AID 1900); format: functional, organism-based
Streptokinase A = target: T2, Streptokinase A (Streptococcus pyogenes serotype M1, UniProt P10520); experiment: S. pyogenes streptokinase expression inhibitors, potency, dose response, plasminogen activation absorbance, OD405 (AID 1914); format: functional, Streptococcus pyogenes M1 GAS;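 further: secreted streptokinase activity via plasminogen activation per viability signal from cell pellet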
T2 sequence (P10520 whole entry): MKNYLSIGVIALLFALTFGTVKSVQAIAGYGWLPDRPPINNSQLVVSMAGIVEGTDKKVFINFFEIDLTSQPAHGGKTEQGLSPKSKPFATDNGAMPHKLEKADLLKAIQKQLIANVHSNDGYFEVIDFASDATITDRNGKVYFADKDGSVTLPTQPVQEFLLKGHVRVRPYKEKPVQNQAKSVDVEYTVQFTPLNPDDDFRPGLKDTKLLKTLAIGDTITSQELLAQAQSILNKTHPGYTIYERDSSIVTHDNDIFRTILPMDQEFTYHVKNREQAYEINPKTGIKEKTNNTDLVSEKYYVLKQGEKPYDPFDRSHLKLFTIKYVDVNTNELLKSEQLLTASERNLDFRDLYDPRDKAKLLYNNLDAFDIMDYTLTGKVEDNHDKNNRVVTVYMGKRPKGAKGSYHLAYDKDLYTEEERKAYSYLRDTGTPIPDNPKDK

Streptococcus = experiment: Group A Streptococcus viability loss, dose response, counter-screen for streptokinase expression inhibitor project, luminescence, BacTiterGlo (AID 1915); format: functional, organism-based;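 further: potency for reduction of bacterial viability or growth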
Genome polyprotein = Genome polyprotein (dengue virus type 2, UniProt P29990); experiment: Dengue-2 NS5 methyltransferase inhibitors, primary screen, biochemical, confirmation dose response (AID 588689); format: functional
Genome polyprotein, sequence (P29990 2492-3391 limits assumed): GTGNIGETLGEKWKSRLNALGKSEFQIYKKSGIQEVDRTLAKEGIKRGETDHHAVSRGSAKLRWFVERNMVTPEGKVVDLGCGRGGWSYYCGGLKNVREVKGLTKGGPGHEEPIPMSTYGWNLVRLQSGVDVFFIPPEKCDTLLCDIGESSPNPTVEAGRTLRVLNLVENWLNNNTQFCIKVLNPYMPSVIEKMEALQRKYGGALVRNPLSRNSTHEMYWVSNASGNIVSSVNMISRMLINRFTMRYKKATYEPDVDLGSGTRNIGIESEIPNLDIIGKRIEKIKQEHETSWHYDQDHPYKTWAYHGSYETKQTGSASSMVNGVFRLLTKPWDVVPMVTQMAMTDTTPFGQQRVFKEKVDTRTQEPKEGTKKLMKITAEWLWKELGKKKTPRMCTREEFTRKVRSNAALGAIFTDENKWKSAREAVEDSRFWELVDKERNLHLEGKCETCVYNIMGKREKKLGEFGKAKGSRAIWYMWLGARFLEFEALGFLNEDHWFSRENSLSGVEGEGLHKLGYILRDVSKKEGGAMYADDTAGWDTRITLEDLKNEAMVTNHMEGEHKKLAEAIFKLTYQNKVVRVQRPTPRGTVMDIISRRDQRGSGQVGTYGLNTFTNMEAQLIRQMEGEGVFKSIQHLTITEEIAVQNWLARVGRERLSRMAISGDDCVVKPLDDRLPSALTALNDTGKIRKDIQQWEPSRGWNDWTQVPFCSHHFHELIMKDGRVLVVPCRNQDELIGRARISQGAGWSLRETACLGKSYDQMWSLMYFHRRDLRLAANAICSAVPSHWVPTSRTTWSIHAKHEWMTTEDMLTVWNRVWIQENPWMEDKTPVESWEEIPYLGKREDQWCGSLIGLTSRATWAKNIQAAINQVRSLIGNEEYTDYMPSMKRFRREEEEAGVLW

[10] = target: FAD-linked sulfhydryl oxidase ALR (Homo sapiens, UniProt P55789); experiment: inhibitors of human ALR sulfhydryl oxidase, dose response, biochemical, H2O2 detection, luminescence, cherry-pick (AID 493248)
FAD-linked sulfhydryl oxidase ALR, sequence (P55789 whole entry): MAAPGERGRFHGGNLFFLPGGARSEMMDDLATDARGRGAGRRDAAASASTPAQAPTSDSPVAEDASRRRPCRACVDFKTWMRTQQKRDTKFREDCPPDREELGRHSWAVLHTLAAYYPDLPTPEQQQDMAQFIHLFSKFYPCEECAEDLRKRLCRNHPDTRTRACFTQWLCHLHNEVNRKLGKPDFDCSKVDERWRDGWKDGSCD

[11] = Shn3 3'UTR reporter inhibitors, dose response, cell-based, Clone20 osteoblasts, firefly luciferase, cherry-picked (AID 624132); format: functional;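 further: firefly luciferase luminescence from reporter carrying the Shn3 3'UTR in osteoblasts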
[12] = HepG2 cell cytotoxicity, dose response, cytotoxicity control for Shn3 inhibitor project, CellTiter-Glo, cherry-picked (AID 624134); format: functional, cell-based
[13] = control 3'UTR Renilla luciferase suppression, dose response, counter-screen for Shn3 inhibitor project, cell-based, Clone20-Shn3RL, cherry-picked (AID 624133); format: functional
[14] = target: T3, Ubiquitin-conjugating enzyme E2 N (Homo sapiens, UniProt P61088); format: functional;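 further: Dose-response confirmation in a TR-FRET assay detecting UBC13-driven polyubiquitin chain formation, inhibition measured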
T3 sequence (P61088 whole entry): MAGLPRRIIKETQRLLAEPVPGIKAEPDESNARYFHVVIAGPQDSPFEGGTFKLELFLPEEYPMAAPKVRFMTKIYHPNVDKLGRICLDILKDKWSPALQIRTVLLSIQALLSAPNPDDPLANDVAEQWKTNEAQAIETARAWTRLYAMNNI

[15] = inhibitors of firefly luciferase expression or activity, dose response, H4 neuroglioma cells, luminescence (AID 1990); format: functional, cell-based
[16] = inhibitors of SNCA 5'UTR-driven reporter translation, confirmation, H4 neuroglioma cells, luminescence (AID 1988); format: functional, cell-based
[17] = Luminescence Cell-Based Dose Response HTS to Identify Inhibitors of 5'UTR Stem-Loop Driven Prion Protein mRNA Translation in H4 Neuroglioblastoma Cells. [Related pubchem assays: 1827 (Project Summary), 1813 (Primary HTS)]; format: functional
INS1 = experiment: beta cell apoptosis inhibitors, cytokine rescue, dose response, luminescence, retest (AID 449756); format: functional, cell-based; settings: Rattus norvegicus;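 further: cell death triggered by IL-1 beta plus TNF-alpha plus IFN-gamma mixture; protective hits raise ATP signal compared with cytokine alone wells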

## CC(NC(=O)Cn1cc([N+](=O)[O-])cn1)c1ccc(C(C)(C)C)cc1 (stereo not drawn)
Fatty acid synthase [1]
  IC50: 4.06 µM (active)
Fatty acid synthase [2]
  IC50: 4.54 µM (active)

## O=C(Nc1ccc(Cl)cn1)c1cccc(F)c1
BJ [3]
  EC50: 18.4 µM (active)
BJ [4]
  EC50: 35.6 µM (active)
BJ [5]
  EC50: > 150 µM (inconclusive)
[6]
  EC50: 18.4 µM (active)

## COc1ccc(C2=NN(C(=O)CSc3nc(=O)n4ccc(C)cc4n3)C(c3ccc(C)cc3)C2)cc1 (stereo not drawn)
Fatty acid synthase [1]
  IC50: 9.17 µM (active)
Fatty acid synthase [2]
  IC50: 8.93 µM (active)

## C[C@H]1CN([C@@H](C)CO)C(=O)c2cc(N(C)C)ccc2O[C@@H]1CN(C)C(=O)Nc1ccc(C(F)(F)F)cc1
[7]
  AC50: 5.64 µM (active)

## C[C@@H]1CN([C@H](C)CO)C(=O)Cc2cc(NS(=O)(=O)c3ccc(F)cc3)ccc2O[C@H]1CN(C)Cc1ccc(C(=O)Nc2ccccc2N)cc1
[7]
  AC50: 3.17 µM (active)

## COc1ccc2c3c([nH]c2c1)[C@H](CO)N(Cc1cc(F)ccc1F)CC31CCN(C(C)=O)CC1
[8]
  AC50: 3.39 µM (active)

## C[C@@H]1CN([C@H](C)CO)C(=O)c2cc(NC(=O)Cc3cn(C)c4ccccc34)ccc2O[C@@H]1CN(C)C(=O)Nc1ccc(C(F)(F)F)cc1
[7]
  AC50: 3.26 µM (active)

## COCCNC(=O)c1c(NC(=O)c2ccco2)n(Cc2ccccc2)c2nc3ccccc3nc12
[9]
  EC50: 12.8 µM (active)
Streptokinase A
  EC50: > 150 µM (not active)
Streptococcus
  EC50: > 150 µM (not active)
Genome polyprotein
  IC50: > 100 µM (active)

## COc1ccc(NC2CCCN(C(=O)c3cn(C)c4ccccc34)C2)cc1 (stereo not drawn)
[10]
  AC50: 3.1 µM (active)

## CC(C)(C)c1ccc(OCCC(=O)OCC(=O)N2c3ccccc3NC(=O)C2(C)C)cc1
Fatty acid synthase [1]
  IC50: 11.2 µM (active)
Fatty acid synthase [2]
  IC50: 4.48 µM (active)

## C[C@@H]1CCCCO[C@@H](CN(C)C(=O)Nc2ccc(C(F)(F)F)cc2)[C@@H](C)CN([C@H](C)CO)C(=O)c2cc(NC(=O)Nc3ccc(C(F)(F)F)cc3)ccc2O1
[7]
  AC50: 3.39 µM (active)

## Sc1nc2ccc(Cl)cc2s1
[10]
  AC50: 2.39 µM (active)

## O=C(N/N=C/c1cc(I)cc(I)c1O)c1ccccn1
[7]
  AC50: 1.12 µM (active)

## C[C@H]1CN([C@@H](C)CO)C(=O)c2cccc(NC(=O)NC3CCCCC3)c2O[C@H]1CN(C)Cc1ccc(C(=O)Nc2ccccc2N)cc1
[7]
  AC50: 2.74 µM (active)

## Cc1ccc(C)c(NC(=O)CN(C)C(=O)c2cccc(S(=O)(=O)N3CCN(Cc4ccccc4)CC3)c2)c1
[11]
  AC50: 3.5 µM (active)
[12]
  AC50: 62.2 µM (active)
[13]
  AC50: 5.74 µM (active)

## CC[C@@H](C)[C@@H]1CN([C@@H](CN2CCC[C@H]2CN2C(N)=NC[C@H]2C(C)C)C(C)C)C(=N)N1CCCC1CCCC1
[14]
  IC50: > 20 µM (inactive)

## C[C@@H]1CN([C@H](C)CO)C(=O)c2c(c3ccccc3n2C)-c2ccccc2CO[C@H]1CN(C)Cc1ccc(Oc2ccccc2)cc1
[8]
  AC50: 3.03 µM (active)

## COc1ccc(C)cc1NC(=O)CNC(c1ccccc1)c1ccc(C)cc1 (stereo not drawn)
[15]
  EC50: 10.3 µM (active)
BJ [3]
  EC50: 2.53 µM (active)
[16]
  EC50: 205 nM (active)
BJ [4]
  EC50: 50.2 µM (inconclusive)
BJ [5]
  EC50: 2.79 µM (active)
[6]
  EC50: 1.39 µM (active)

## COc1cccc(N2CCN(C(=O)c3ccc(C[S+]([O-])c4ccc(Cl)cc4)o3)CC2)c1 (stereo not drawn)
[15]
  EC50: 4.79 µM (inconclusive)
[17]
  EC50: 6.76 µM (active)
[16]
  EC50: 670 nM (active)
[10]
  AC50: 3.44 µM (active)

## N#C/C(=C\c1cccs1)C(=O)c1ccccc1
Genome polyprotein
  IC50: > 100 µM (active)

## Cc1ccc(S(=O)(=O)N2CCN(c3ncnc4ccccc34)CC2)cc1
INS1
  AC50: 4.61 µM (active)
[11]
  AC50: 1.56 µM (active)
[12]
  AC50: 4.03 µM (active)
[13]
  AC50: 13.7 µM (active)

## CCCNC(=O)N1CC(=O)N2[C@@H](CO)[C@@H](c3ccc(C#Cc4cccc(OC)c4)cc3)[C@@H]2C1
[8]
  AC50: 17 µM (active)

## C=CCNc1nc(N2CCCCC2)c(C#N)c2c1CN(Cc1ccccc1)CC2
[11]
  AC50: 16.8 µM (active)
[12]
  AC50: > 70 µM (inactive)
[13]
  AC50: 28.9 µM (active)

## C[C@@H]1CN([C@H](C)CO)C(=O)Cc2cc(NC(=O)Nc3cccc4ccccc34)ccc2O[C@@H]1CN(C)Cc1ccc(Cl)c(Cl)c1
[7]
  AC50: 2.53 µM (active)
